These are literature values, as cited in US20080254073A1, “Transdermal Patch Comprising Paroxetine” (IKSU PARMACEUTICAL CO., LTD., priority 2005, published 2008).

Experiment in data set [1]: not given
The source holds these as a separate data set.

What is called log P is the decadic logarithm of the partition coefficient of the neutral form, usually between octanol and water. Take `Fc1ccc([C@@H]2CCNC[C@H]2COc2ccc3c(c2)OCO3)cc1` [Paroxetine]: for the setting “after multiple oral administration, healthy volunteers”, the elimination half-life entry is given as “about 24 hours”. The “time to reach maximum plasma concentration of the drug” value (oral administration, healthy volunteers) is given as “about five”. Also, the “influence of food or antacid on absorption” value (oral, administered together with food or antacid) was “not influenced by food or antacid”. The “difference in the area under the plasma concentration-time curve (AUC)” value (oral, differences among individuals) is “about 35 times”. In addition, the “partition coefficient of the drug using octanol-water” value in data set [1] is listed as 169.20±17.19. Moreover, the “log P” value in data set [1] (octanol-water) is 2.23.
